The values that follow are results of earlier work, collected in US20220202008A1, “BAIT FOR A PEST” (FALCON LIFE SCIENCES LTD, priority 2020, published 2022).

For this data set, the system named is mouse. As to conditions: acute dose.

Structures are written as SMILES.

As for `COC(C)(C)CCCC(C)CC=CC(C)=CC(=O)OC(C)C` (stereo not shown) [methoprene, isopropyl 11-methoxy-3,7,11-trimethyldodeca-2,4-dienoate], the LD50 entry was “around 5000 ppm”.
